{
  "source": "patent US20240041878A1",
  "about": "“APELIN RECEPTOR MODULATORS FOR TREATMENT OF A DISORDER OR DISEASE ASSOCIATED WITH BBB PERMEABILITY” (BioAge Labs, Inc., priority 2022, published 2024)",
  "key": {"[1]": {"test_system": "26-month-old female C57BL/6 mice", "experiment": "Age-dependent BBB permeability model, Evans blue assay", "assay_type": "in vivo, mouse", "conditions": "50 mg/kg BID P.O. one week; aged versus aged+BGE-105; p<0.01", "description": "The mice were handled in accordance with principles and guidelines established by the “Guide for the Care and Use of Laboratory Animals” and overseen by the BioAge Lab's institutional animal care and use committee (IACUC). Mice were housed conventionally in a constant temperature (20-22° C.) and humidity (40%-60%) animal room with a 12/12 h light/dark cycle and free access to food and water.\nFor assessment of BGE-105 activity, the age-dependent BBB permeability model was established using 26-month-old female C57BL/6 mice. Mice were randomized based on the body weight and body condition scores to two groups (vehicle or BGE-105, n=8). Mice were administered P.O. vehicle (Control) or BGE-105 via P.O. at 50 mg/kg (BID) for one week (7 days). See FIG. 4B for a schematic of the protocol. The BBB permeability was measured via Evans blue assay. Mice were intravenously injected with Evans Blue (2%, 75 ul/30 g BW). […]\nFrozen olfactory bulb and hippocampus were placed in 200 μl of extraction buffer (50% trichloroacetic acid in formamide) for 24 hours. […] Endpoint fluorescence was recorded (620 nm excitation, 680 nm emission) with a SpectraMax iD5 (Molecular Devices), normalized to tissue weight, and relative treatment-related change in fluorescence (a measure of blood-brain barrier leakage) was calculated compared to untreated aged mice."}, "[2]": {"test_system": "NF-κB signaling pathway in astrocytes", "experiment": "RT Profiler PCR Array, mouse NF-κB Signaling Targets, in astrocytes", "assay_type": "cell-based", "conditions": "RAC+BGE-105 [250 nM]", "description": "To stimulate astrocytes into a reactive state found in aging and neurodegenerative diseases per previous publications (Liddelow et al., 2017; Barbar et al., 2020), a combination of the cytokines TNF-α and IL-1α, and complement factor C1q, were added at 30 ng/mL, 3 ng/mL, and 400 ng/mL, respectively, into astrocyte culture media to make ‘reactive astrocyte cocktail’ (RAC) media. […] Bachem, Cat. #4029110), BAY-11-7082 (50 μM; Abcam, Cat. #ab141228) or equal volume of vehicle (0.01% DMSO in PBS) (hereafter referred to as ‘RAC treatment’). […] Total RNA purity and concentration was assessed using NanoDrop (ThermoFisher). 500 ng of RNA was used for cDNA synthesis using High-Capacity cDNA Reverse Transcription Kit (Fisher Scientific, Cat. #43-749-66) and total volume of cDNA was diluted to a final concentration of 2 ng/μ1. Gene expression was assessed using a RT Profiler PCR Array (Qiagen, Cat. #330231) specific to mouse NF-κB Signaling Targets according to manufacturer's protocol."}, "[3]": {"test_system": "aged mice with TBI", "experiment": "Traumatic brain injury (TBI) model in aged mice, controlled cortical impact", "assay_type": "in vivo, mouse", "conditions": "given orally before and/or after controlled cortical impact", "excerpt": "This study assessed the effects of BGE-105 on mitigating the effects of CNS damage and inflammation, and accelerating functional recovery, in a mouse model of TBI.\nBGE-105 is given orally to aged mice at various potential doses for a period of time before and/or after controlled cortical impact (model of TBI in mice); during the experimental period, mice undergo various behavioral assessments to understand whether BGE-105 treatment affected motor and cognitive functions known to be impaired by TBI. After, the brains of mice are analyzed for neuroinflammatory markers by a variety of histological and biochemical methods"}, "[4]": {"molecular_target": "T1, apelin receptor (Homo sapiens, UniProt P35414)", "T1 sequence (P35414 1-380)": "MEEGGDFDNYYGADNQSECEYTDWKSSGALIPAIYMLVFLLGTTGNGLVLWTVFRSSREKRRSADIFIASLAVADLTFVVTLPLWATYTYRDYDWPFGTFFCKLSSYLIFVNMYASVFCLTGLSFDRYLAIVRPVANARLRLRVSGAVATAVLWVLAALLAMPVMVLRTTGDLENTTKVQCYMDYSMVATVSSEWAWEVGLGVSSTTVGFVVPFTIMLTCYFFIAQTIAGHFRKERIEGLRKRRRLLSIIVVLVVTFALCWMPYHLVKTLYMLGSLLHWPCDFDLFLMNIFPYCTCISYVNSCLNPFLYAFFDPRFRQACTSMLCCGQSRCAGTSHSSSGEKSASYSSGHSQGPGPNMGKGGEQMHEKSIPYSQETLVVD", "conditions": "Ason et al., JCI Insight 2020; cited from earlier work"}, "[5]": {"test_system": "rats", "conditions": "Ason et al., JCI Insight 2020; cited from earlier work"}},
  "data": [
    {"smiles": "COc1cccc(OC)c1-n1c(NS(=O)(=O)[C@@H](C)[C@H](C)c2ncc(C)cn2)nnc1-c1cncc(C)c1", "note": "[BGE-105, (2S,3R)—N-(4-(2,6-dimethoxyphenyl)-5-(5-methyl-3-pyridinyl)-4H-1,2,4-triazol-3-yl)-3-(5-methyl-2-pyrimidinyl)-2-butanesulfonamide]", "values": [
      {"measurement": "change of age-induced increase in BBB permeability in the OB", "setting": "[1]", "result": "−28", "unit": "%"},
      {"measurement": "decrease of Cxcl3 expression", "setting": "[2]", "result": 55, "unit": "%"},
      {"measurement": "increase of Csf3 expression", "setting": "[2]", "result": 16, "unit": "%"},
      {"measurement": "increase of Il2 expression", "setting": "[2]", "result": 184, "unit": "%"},
      {"measurement": "neuroinflammatory markers and neuro-inflammation", "setting": "[3]", "result": "decrease of neuroinflammatory markers"},
      {"measurement": "activation of the apelin receptor", "setting": "[4]", "result": "known to activate"},
      {"measurement": "cardiovascular response", "setting": "[5]", "result": "induces a cardiovascular response"}
    ]}
  ]
}
